What was measured:
Assay type in all cases: cell-based
alpha2A receptor = molecular target: T1, alpha2A receptor (Homo sapiens, UniProt P08913); test: Receptor Selection and Amplification Technology (RSAT) assay, alpha2A; settings: for EC50: RSAT, NIH-3T3 cells cotransfected with receptor and Gq/i5, not active = not active at concentrations less than 10 micromolar, read-out: Alpha 2A EC50; for Alpha 2A IA (intrinsic activity): ratio of maximal effect of the drug to maximal effect of standard full agonist brimonidine (UK14304)
T1 construct: expressed in transfected cells; host or cells: NIH-3T3
T1 sequence (P08913 1-465): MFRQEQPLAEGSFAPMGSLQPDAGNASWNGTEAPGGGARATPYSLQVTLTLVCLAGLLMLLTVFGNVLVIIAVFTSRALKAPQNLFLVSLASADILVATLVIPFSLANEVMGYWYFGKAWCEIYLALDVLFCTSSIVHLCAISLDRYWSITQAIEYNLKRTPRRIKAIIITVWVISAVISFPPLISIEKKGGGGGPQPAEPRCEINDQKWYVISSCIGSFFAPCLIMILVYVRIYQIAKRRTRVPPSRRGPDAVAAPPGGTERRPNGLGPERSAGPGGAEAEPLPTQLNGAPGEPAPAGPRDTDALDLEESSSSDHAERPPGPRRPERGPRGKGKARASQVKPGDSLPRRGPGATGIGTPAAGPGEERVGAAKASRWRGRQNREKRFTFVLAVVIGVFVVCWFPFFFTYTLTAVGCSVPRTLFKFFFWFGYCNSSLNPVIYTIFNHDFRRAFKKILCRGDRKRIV
Experimental: (§1) Receptor Selection and Amplification Technology (RSAT) Assay
(§2) The RSAT assay measures a receptor-mediated loss of contact inhibition that results in selective proliferation of receptor-containing cells in a mixed population of confluent cells. The increase in cell number is assessed with an appropriate transfected marker gene such as β-galactosidase, the activity of which can be easily measured in a 96-well format. Receptors that activate the G protein, Gq, elicit this response. Alpha2 receptors, which normally couple to Gi, activate the RSAT response when coexpressed with a hybrid Gq protein that has a Gi receptor recognition domain, called Gq/i5.
(§3) NIH-3T3 cells are plated at a density of 2×10^6 cells in 15 cm dishes and maintained in Dulbecco's modified Eagle's medium supplemented with 10% calf serum. One day later, cells are cotransfected by calcium phosphate precipitation with mammalian expression plasmids encoding p-SV-β-galactosidase (5-10 μg), receptor (1-2 μg) and G protein (1-2 μg). 40 μg salmon sperm DNA may also be included in the transfection mixture. Fresh media is added on the following day and 1-2 days later, cells are harvested and frozen in 50 assay aliquots. Cells are thawed and 100 μl added to 100 μl aliquots of various concentrations of drugs in triplicate in 96-well dishes. Incubations continue 72-96 hr at 37° C. After washing with phosphate-buffered saline, β-galactosidase enzyme activity is determined by adding 200 μl of the chromogenic substrate (consisting of 3.5 mM o-nitrophenyl-β-D-galactopyranoside and 0.5% nonidet P-40 in phosphate buffered saline), incubating overnight at 30° C. and measuring optical density at 420 nm. The absorbance is a measure of enzyme activity, which depends on cell number and reflects a receptor-mediated cell proliferation. The efficacy or intrinsic activity is calculated as a ratio of the maximal effect of the drug to the maximal effect of a standard full agonist for each receptor subtype. Brimonidine, also called UK14304, the chemical structure of which is shown below, is used as the standard agonist for the alpha2A, alpha2B and alpha2C receptors. The EC50 is the concentration at which the drug effect is half of its maximal effect.
(§4) EC50 values are nanomolar. NA stands for “not active” at concentrations less than 10 micromolar. IA stands for “intrinsic activity.”

alpha2C receptor = molecular target: T2, alpha2C receptor (Homo sapiens, UniProt P18825); test: Receptor Selection and Amplification Technology (RSAT) assay, alpha2C; settings: for EC50: RSAT, NIH-3T3 cells cotransfected with receptor and Gq/i5, not active = not active at concentrations less than 10 micromolar, read-out: Alpha 2C EC50; for Alpha 2C IA (intrinsic activity): ratio of maximal effect of the drug to maximal effect of standard full agonist brimonidine (UK14304)
T2 construct: expressed in transfected cells; host or cells: NIH-3T3
T2 sequence (P18825 1-462): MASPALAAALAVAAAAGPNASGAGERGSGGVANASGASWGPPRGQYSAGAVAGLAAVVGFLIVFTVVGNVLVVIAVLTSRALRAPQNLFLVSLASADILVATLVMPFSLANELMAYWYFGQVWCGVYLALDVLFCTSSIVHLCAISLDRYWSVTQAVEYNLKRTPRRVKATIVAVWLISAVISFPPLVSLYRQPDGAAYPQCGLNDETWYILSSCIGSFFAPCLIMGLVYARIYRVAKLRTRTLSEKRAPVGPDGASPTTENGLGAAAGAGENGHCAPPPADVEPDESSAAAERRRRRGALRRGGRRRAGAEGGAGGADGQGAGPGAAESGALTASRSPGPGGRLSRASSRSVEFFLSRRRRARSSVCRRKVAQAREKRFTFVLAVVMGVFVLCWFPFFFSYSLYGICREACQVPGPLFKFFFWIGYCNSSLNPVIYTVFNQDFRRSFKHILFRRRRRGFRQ
Experimental: as §1, §2, §3, §4

alpha2B receptor = molecular target: T3, alpha2B receptor (Homo sapiens, UniProt P18089); test: Receptor Selection and Amplification Technology (RSAT) assay, alpha2B; settings: for EC50: RSAT, NIH-3T3 cells cotransfected with receptor and Gq/i5, not active = not active at concentrations less than 10 micromolar, read-out: Alpha 2B EC50; for Alpha 2B IA (intrinsic activity): ratio of maximal effect of the drug to maximal effect of standard full agonist brimonidine (UK14304)
T3 construct: expressed in transfected cells; host or cells: NIH-3T3
T3 sequence (P18089 1-450): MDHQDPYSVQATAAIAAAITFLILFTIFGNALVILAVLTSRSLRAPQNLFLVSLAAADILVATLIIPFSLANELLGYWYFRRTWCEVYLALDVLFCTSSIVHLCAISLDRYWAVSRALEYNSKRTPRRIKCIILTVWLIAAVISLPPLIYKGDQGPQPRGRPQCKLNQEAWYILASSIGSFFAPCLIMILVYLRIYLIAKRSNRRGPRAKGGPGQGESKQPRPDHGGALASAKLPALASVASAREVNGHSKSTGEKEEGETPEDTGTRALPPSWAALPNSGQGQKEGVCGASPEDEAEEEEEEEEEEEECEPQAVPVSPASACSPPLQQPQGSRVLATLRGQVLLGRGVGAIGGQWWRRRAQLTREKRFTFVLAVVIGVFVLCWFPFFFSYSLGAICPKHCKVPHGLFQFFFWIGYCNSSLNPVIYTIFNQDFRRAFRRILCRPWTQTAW
Experimental: as §1, §2, §3
The results of the RSAT assay with several exemplary compounds of the invention are disclosed in Table 1 above together with the chemical formulas of these exemplary compounds. EC50 values are nanomolar. NA stands for “not active” at concentrations less than 10 micromolar. IA stands for “intrinsic activity.”

Row | SMILES | EC50 (alpha2A receptor) [nM] | Alpha 2A IA (intrinsic activity) (alpha2A receptor) | EC50 (alpha2C receptor) [nM] | Alpha 2C IA (intrinsic activity) (alpha2C receptor) | EC50 (alpha2B receptor) [nM] | Alpha 2B IA (intrinsic activity) (alpha2B receptor)
1 | O=C(NCCF)NC1CCCCc2ccccc21 (stereo not drawn) | 534 | 0.3 | 967 | 0.5 | 212 | 0.65
2 | COc1cccc2c1CCC2NC(=O)NCCF (stereo not drawn) | 2070 | 0.48 | 1110 | 0.59 | 121 | 0.72
3 | COc1cccc2c1C(NC(=O)NCCF)CC2 (stereo not drawn) | 277 | 0.48 | 972 | 0.54 | 544 | 0.63
4 | Cc1cccc2c1C(NC(=O)NCCF)CC2 (stereo not drawn) | 189 | 0.43 | 197 | 0.62 | 26.8 | 0.6
5 | O=C(NCCF)N[C@@H]1CCc2ccccc21 | 693 | 0.36 | 1820 | 0.61 | 565 | 0.55
6 | CC1=C(C)C(NC(=O)NCCF)CC1 (stereo not drawn) | 586 | 0.36 | 214 | 0.64 | 37 | 1.07
7 | O=C(NCCF)NC1CCc2ccc(Cl)cc21 (stereo not drawn) | 343 | 0.63 | 86 | 0.7 | 12 | 0.99
8 | O=C(NCCF)NC1CCCc2c(Cl)cccc21 (stereo not drawn) | 168 | 0.42 | 310 | 0.72 | 29 | 1.11

Now those with a lower EC50 (alpha2A receptor), led by results:

Row | EC50 (alpha2A receptor) [nM] | Alpha 2A IA (intrinsic activity) (alpha2A receptor) | EC50 (alpha2C receptor) [nM] | Alpha 2C IA (intrinsic activity) (alpha2C receptor) | EC50 (alpha2B receptor) [nM] | Alpha 2B IA (intrinsic activity) (alpha2B receptor) | SMILES
9 | 34.9 | 1.05 | 116 | 1.1 | 2.5 | 1.03 | O=C(NCCF)NC1CCc2c(Cl)cccc21 (stereo not drawn)
10 | 64.6 | 0.97 | 103 | 0.7 | 2.7 | 1.06 | O=C(NCCF)NC1CCc2c(Br)cccc21 (stereo not drawn)
11 | 130 | 0.76 | 107 | 0.68 | 1.8 | 1.05 | O=C(NCCF)NC1CCc2c(F)cccc21 (stereo not drawn)
12 | 48 | 0.41 | 123 | 1.03 | 5.6 | 1.3 | Cc1cccc2c1CCCC2NC(=O)NCCF (stereo not drawn)
13 | 146 | 0.41 | 204 | 0.53 | 20.3 | 0.91 | O=C(NCCF)NC1CCCc2c(Br)cccc21 (stereo not drawn)
14 | 68.3 | 0.52 | 107 | 0.76 | 8.2 | 1.03 | O=C(NCCF)NC1CCCc2c(F)cccc21 (stereo not drawn)

Source: patent US7598417B2, “Substituted fluoroethyl ureas as alpha 2 adrenergic agents” (Allergan, Inc., priority 2007, dated 2009)
